{
  "source": "patent US12508280B2",
  "about": "“Formulations for improving gut health” (DSM IP ASSETS B.V., priority 2018, dated 2025)",
  "key": {"[1]": {"tested_on": "fecal suspension from the selected donor", "experiment": "Intestinal batch fermentation, SCFA production (first set)", "assay_type": "cell-based, human", "settings": "after 48 h fermentation, vs corresponding control", "summary_of_the_method": "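Test ingredients were added to modified nutritional medium inoculated with fresh donor fecal suspension. Incubation ran 48 h at 37° C, 90 rpm, anaerobic, with ethanol blanks and single repeats. SCFA were sampled at 0, 6, 24 and 48 h, diethyl ether-extracted and quantified by GC-FID against a 2-methyl hexanoic acid internal standard; molar sums were taken as unbranched, branched and total SCFA.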"}, "[2]": {"tested_on": "Co-cultures of Caco-2 and HT29-MTX-E12 cells", "experiment": "Barrier integrity, leaky gut model, basolateral stressor 5% EtOH", "assay_type": "cell-based", "settings": "0.2× dose, vs corresponding control; for Lucifer yellow, basolateral induction of leaky gut cellular model: 48 h fermentation samples; for TEER, basolateral induction of leaky gut cellular model: 48 h minus 0 h fermentation samples", "method": "(§1) Since ethanol is known to have antimicrobial effects, two blanks for each type of stock solution were included. As a source of the microbial community, a freshly prepared fecal suspension from the selected donor was added to the reactors. […] All tests, except the blanks, were performed in single repetition, resulting in 40 independent incubations, as specified in Table 1. Incubation conditions of the pre-screening experiment and the final experiment were 48 h at 37° C., under shaking (90 rpm) and anaerobic conditions. […] Effluent samples were collected from each fermentation flask before (0 h fermentation) and after fermentation (48 h fermentation), sterilized by filtering through 0.22 μm filters and used for short chain fatty acids (SCFA), quantification of immunological biomarkers and in vitro analysis in cell culture systems.\n(§2) Co-cultures of Caco-2 and HT29-MTX-E12 cells were used to assess the protective effect of the supernatants before (0 h) and after fermentation (48 h) for both sets of in vitro experiments above.\n(§3) CaCo-2 ECACC 86010202 and HT29-MTX-E12 ECACC 12040401 cells (both from European Collection of Cell Cultures, Salisbury, UK) were both cultured at 37° C., in atmosphere of 5% CO2 in DMEM medium supplemented with 4.5 g/L D-Glucose, 4 mM L-Glutamine, 1 mM Sodium Pyruvate, 1% MEM Non-Essential Amino Acids, 50 μg/mL Gentamicin (Life Technologies Europe B.V., Zug, Switzerland) and 10% heat-inactivated FBS (Sigma-Aldrich, Buchs, Switzerland). Sub-confluent cells were trypsinized using 0.25% Trypsin/EDTA (Life Technologies Europe B.V., Zug, Switzerland) and passaged at a ratio of 1:5-1:10 twice a week. Cells between passages 55 and 85 were used for this study.\n(§4) Cells were seeded at a density of 20000 cells/well in a 7:3 ratio (Caco-2:HT29-MTX-E12) in Corning HTS Transwell-24 system PET membranes, 0.4 μM pore size, cell growth area 0.33 cm2/well (Corning BV, Amsterdam, Netherlands) and cultured as described above. Media was changed every second to third day.\nFor both sets of in vitro experiments, the integrity of cell monolayers after the stressor test was evaluated by both TEER values and by measuring the transport of Lucifer yellow from apical to basolateral compartments (Leaky gut model). […] The inserts were rinsed twice with HBSS using a reservoir tray, 100 μl HBSS were then added to the apical site of the inserts and subsequently moved to new wells with fresh HBSS and allowed to equilibrate at 37° C. for 60 min in the incubator followed by TEER measurement to obtain baseline resistance readings. […]"}, "[3]": {"tested_on": "Co-cultures of Caco-2 and HT29-MTX-E12 cells", "experiment": "Barrier integrity, leaky gut model, apical stressor Rhamnolipids", "assay_type": "cell-based", "settings": "vs corresponding control; for TEER, apical induction of leaky gut cellular model: 48 h minus 0 h fermentation samples; for Lucifer yellow, apical induction of leaky gut cellular model: 48 h fermentation samples", "method": "as §1, §2, §3, §4\nFor both sets of in vitro experiments, the integrity of cell monolayers after the stressor test was evaluated by both TEER values and by measuring the transport of Lucifer yellow from apical to basolateral compartments (Leaky gut model). A prewarmed HBSS transport buffer composed of Hank's Balanced Salt Solution pH 7.4 with Ca2+ and Mg2+, containing 5.5 mM D-(+)-glucose, Sodium Bicarbonate, and supplemented with 4 mM L-glutamine, 20 mM HEPES (Life Technologies Europe B.V., Zug, Switzerland) was used for all permeability experiments. The inserts were rinsed twice with HBSS using a reservoir tray, 100 μl HBSS were then added to the apical site of the inserts and subsequently moved to new wells with fresh HBSS and allowed to equilibrate at 37° C. for 60 min in the incubator followed by TEER measurement to obtain baseline resistance readings.\nLucifer Yellow CH dilithium salt (Sigma-Aldrich, Buchs, Switzerland) was dissolved in HBSS at a final concentration of 100 μg/ml. Basolateral stressor EtOH (Merck, KgaA, Darmstadt, Germany) was diluted to 5% in HBSS. Apical Stressor Rhamnolipids R90 (AGAE Technologies, Corvallis, USA) was dissolved in HBSS containing Lucifer Yellow at a final concentration of 350 μg/ml. All solutions were prepared freshly each time.\nThe HBSS transport buffer from the basolateral chamber was aspirated first, then the HBSS from the apical chamber and replaced with Lucifer yellow solution. For the apical stressor test, Lucifer yellow solution containing 350 μg/ml Rhamnolipids or Lucifer yellow solution without stressor for the control wells was loaded into the apical compartment, blank HBSS was subsequently added to the basolateral chamber."}, "[4]": {"tested_on": "HT29 cells", "experiment": "HT29 cell culture, quantification of immunological biomarkers", "assay_type": "cell-based", "settings": "effluent from 24 h fermentation, vs corresponding control"}, "[5]": {"tested_on": "caecal contents", "experiment": "In vitro gas production with caecal contents", "assay_type": "cell-based, pigs", "method": "After 30 days of adaptation, animals were slaughtered. […] Regarding the caecal contents, one part was immediately sampled, dispensed in 20 ml tubes, frozen in liquid nitrogen and stored at −80° C. to use as frozen inoculum for in vitro gas production studies. The other part was directly used as fresh fermentation inoculum.\nThe microbial fermentation pattern of caecal contents was studied in vitro by the gas production technique (Theodorou et al., 1994. Anim Feed Sci Technol 48:185-1-97). […] Firstly, triplicate glass bottles (110 mL total volume) for each treatment were filled with 56 mL incubation solution. Caecal contents of each of the 3 pigs for each treatment were mixed 2:1 with the incubation solution under CO2 atmosphere and homogenized for few minutes with waring blender (ceacal contents implies a 0.20 of total incubation solution). Then, 24 mL of the mixture were added to each bottle to complete the 80 mL total liquid volume. In addition, triplicate bottles without substrate were also included as blanks. Bottles were sealed under a CO2 stream and incubated at 39° C. for 12 h. Pressure was recorded every two hours throughout the incubation period, by means of an HD 2124.02 manometer fitted with a TP804 pressure gauge (Delta Ohm, Caselle di Selvazzano, Italy). Readings were converted into volume by a pre-established linear regression equation between the pressure recorded in the same bottles under the same conditions and known air volumes (n=103; R2=0.996). The gas volume recorded for each incubation time was expressed per unit of incubated organic matter (OM). Methane (CH4) concentration was measured on every 6 h interval. At 6 and 12 h incubation samples were collected and either acidified 1:1 with 0.1N HCl or added to 0.5 ml of a deproteinizing mixture of 0.5 M PO4H3 with 2 mg/ml 4-methyl valeric acid, that were stored at −20° C. for determination of ammonia and volatile fatty acid (VFA) concentration, respectively. Note that the procedure of the in vitro gas production was the same for both fresh inocula and frozen inocula, with the only difference that the frozen samples of caecal contents were previously maintained at 38° C. for 5 min for thawing.\nFor gas production, results were analyzed for each incubation time as a split-plot design, considering the donor pig as a block, the contents (fresh vs. frozen) as the main plot and the treatment as the subplot. […] Differences were considered significant when P<0.05, and a trend for significance was considered when 0.05 ? P<0.10 and, when significant, differences were compared by the Tukey t test at P<0.05."}},
  "data": [
    {"compound": "Vitamin E", "values": [
      {"measurement": "acetate production", "setting": "[1]; 1× dose", "value": "increase acetate production"},
      {"measurement": "propionate production", "setting": "[1]; 1× dose", "value": "increase propionate production"},
      {"measurement": "total SCFAs production", "setting": "[1]; 1× dose", "value": "increase total SCFAs production"},
      {"measurement": "acetate production", "setting": "[1]; 5× dose", "value": "increase acetate production"},
      {"measurement": "Lucifer yellow, basolateral induction of leaky gut cellular model", "setting": "[2]", "value": "decrease Lucifer yellow"},
      {"measurement": "TEER, basolateral induction of leaky gut cellular model", "setting": "[2]", "value": "increase TEER"},
      {"measurement": "TEER, apical induction of leaky gut cellular model", "setting": "[3]; 0.2× dose", "value": "increase TEER"},
      {"measurement": "Lucifer yellow, apical induction of leaky gut cellular model", "setting": "[3]; 1× dose", "value": "decrease Lucifer yellow"},
      {"measurement": "TEER, apical induction of leaky gut cellular model", "setting": "[3]; 1× dose", "value": "increase TEER"},
      {"measurement": "Lucifer yellow, apical induction of leaky gut cellular model", "setting": "[3]; 5× dose", "value": "decrease Lucifer yellow"},
      {"measurement": "TEER, apical induction of leaky gut cellular model", "setting": "[3]; 5× dose", "value": "increase TEER"},
      {"measurement": "IL-8 production by HT29 cells", "setting": "[4]; 0.2× dose", "value": "increase IL-8 production"},
      {"measurement": "MIP3A-CCL20 production by HT29 cells", "setting": "[4]; 0.2× dose", "value": "increase MIP3A-CCL20 production"},
      {"measurement": "IL-8 production by HT29 cells", "setting": "[4]; 1× dose", "value": "increase IL-8 production"},
      {"measurement": "MIP3A-CCL20 production by HT29 cells", "setting": "[4]; 1× dose", "value": "increase MIP3A-CCL20 production"},
      {"measurement": "GROa-CXCL1 production by HT29 cells", "setting": "[4]; 5× dose", "value": "increase GROa-CXCL1 production"},
      {"measurement": "IL-8 production by HT29 cells", "setting": "[4]; 5× dose", "value": "increase IL-8 production"},
      {"measurement": "MIP3A-CCL20 production by HT29 cells", "setting": "[4]; 5× dose", "value": "increase MIP3A-CCL20 production"}
    ]},
    {"compound": "Cc1cc2nc3c(=O)[nH]c(=O)nc-3n(C[C@H](O)[C@H](O)[C@H](O)CO)c2cc1C", "note": "[Vitamin B2, riboflavin]", "values": [
      {"measurement": "butyrate production", "setting": "[1]; 5× dose", "value": "increase butyrate production"},
      {"measurement": "Lucifer yellow, basolateral induction of leaky gut cellular model", "setting": "[2]", "value": "decrease Lucifer yellow"},
      {"measurement": "TEER, basolateral induction of leaky gut cellular model", "setting": "[2]", "value": "increase TEER"},
      {"measurement": "Lucifer yellow, apical induction of leaky gut cellular model", "setting": "[3]; 0.2× dose", "value": "decrease Lucifer yellow"},
      {"measurement": "TEER, apical induction of leaky gut cellular model", "setting": "[3]; 0.2× dose", "value": "increase TEER"},
      {"measurement": "GROa-CXCL1 production by HT29 cells", "setting": "[4]; 1× dose", "value": "increase GROa-CXCL1 production"},
      {"measurement": "IL-8 production by HT29 cells", "setting": "[4]; 1× dose", "value": "increase IL-8 production"},
      {"measurement": "GROa-CXCL1 production by HT29 cells", "setting": "[4]; 5× dose", "value": "increase GROa-CXCL1 production"},
      {"measurement": "IL-8 production by HT29 cells", "setting": "[4]; 5× dose", "value": "increase IL-8 production"},
      {"measurement": "CH4 production as volume per unit of incubation substrate", "setting": "[5]; 6 and 12 h incubation, ranking, no significant differences", "value": "lowest accumulate CH4"},
      {"measurement": "concentration of total VFA, molar proportions of VFA, ammonia concentration", "setting": "[5]; among treatments", "value": "No differences were recorded"},
      {"measurement": "CH4 proportion of total gas", "setting": "[5]; up to 12 h incubation, numerical, no significant differences (P>0.05)", "value": "the lowest"},
      {"measurement": "volume of gas", "setting": "[5]; vs control, 4, 10 and 12 h incubation, P<0.05", "value": "higher"}
    ]}
  ]
}
